Values quoted from earlier work in US10045993B2, “Pharmaceutical preparation containing entecavir as active ingredient, and preparation method therefor” (CTC BIO, INC., priority 2014, dated 2018).

Conditions: pH 7.9, 25° C. (room temperature)

- moisture solubility: 2400 µg/mL
SMILES: C=C1[C@H](CO)[C@@H](O)C[C@@H]1n1cnc2c(=O)[nH]c(N)nc21 [Entecavir, [1-S-(1α,3α,4β)]-2-amino-1,9-dihydro-9-[4-hydroxy-3-(hydroxymethyl)-2-methylenecyclopentyl]-6H-purin-6-one]
